From ChEMBL document CHEMBL6083271 (J Med Chem, 2024)
Calls of active or inactive are those of the source. The calls are words filed in the database; no cut-off is given here.

Assays:
[1] = test system: RS4-11; assay: Antiproliferative activity against human RS4;11 cells harbouring p53 wild type assessed as inhibition of cell growth measured after 4 days by WST-8 assay; format: functional, cell-based; conditions: RS4-11, 96 h
[2] = test system: RS4-11; assay: Antiproliferative activity against human RS4;11 cells harbouring p53 mutant assessed as inhibition of cell growth measured after 4 days by WST-8 assay; format: functional, cell-based; conditions: RS4-11, 96 h
[3] = test system: RS4-11; assay: Antiproliferative activity against human RS4;11 cells assessed as inhibition of cell growth measured after 4 days by WST-8 assay; format: functional, cell-based; conditions: for IC50: RS4-11, 96 h
[4] = test system: MV4-11; assay: Antiproliferative activity against human MV4-11 cells assessed as inhibition of cell growth measured after 4 days by WST-8 assay; format: functional, cell-based; conditions: MV4-11, 96 h
[5] = test system: RS4-11; assay: Upregulation of MDM2 mRNA level in human RS4;11 cells at 300 nM measured after 3 hrs by qRT-PCR analysis; format: functional, cell-based
[6] = test system: RS4-11; assay: Upregulation of p21 mRNA level in human RS4;11 cells at 300 nM measured after 3 hrs by qRT-PCR analysis; format: functional, cell-based
[7] = test system: RS4-11; assay: Upregulation of PUMA mRNA level in human RS4;11 cells at 300 nM measured after 3 hrs by qRT-PCR analysis; format: functional, cell-based
[8] = test system: RS4-11; assay: Effect of p53 mRNA level in human RS4;11 cells at 300 nM by qRT-PCR analysis; format: functional, cell-based
[9] = test system: MV4-11; assay: Upregulation of MDM2 mRNA level in human MV4-11 cells at 300 nM by qRT-PCR analysis; format: functional, cell-based
[10] = test system: MV4-11; assay: Upregulation of p21 mRNA level in human MV4-11 cells at 300 nM by qRT-PCR analysis; format: functional, cell-based
[11] = test system: MV4-11; assay: Upregulation of PUMA mRNA level in human MV4-11 cells at 300 nM by qRT-PCR analysis; format: functional, cell-based
[12] = test system: RS4-11; assay: Antiproliferative activity against human RS4;11 cells assessed as inhibition of cell growth measured after 4 days in presence of lenalidomide by WST-8 assay; format: functional, cell-based; conditions: time 4.0 day
[13] = test system: MV4-11; assay: Antiproliferative activity against human MV4-11 cells assessed as inhibition of cell growth measured after 4 days in presence of lenalidomide by WST-8 assay; format: functional, cell-based; conditions: time 4.0 day
[14] = test system: RS4-11; assay: Upregulation of p53 level in human RS4;11 cells harbouring wild type p53 at 10 to 300 nM measured after 2 hrs by Western blot analysis; format: functional, cell-based; conditions: dose 10-300 nM
[15] = test system: RS4-11; assay: Downregulation of MDM2 level in human RS4;11 cells harbouring wild type p53 at 10 to 300 nM measured after 2 hrs by Western blot analysis; format: functional, cell-based; conditions: dose 10-300 nM
[16] = test system: RS4-11; assay: Antitumor activity against human RS4;11 cells xenografted in SCID mouse model assessed as tumor regression at 50 mg/kg, iv qd administered every other for 2 weeks by caliper method; format: functional, organism-based
[17] = Toxicity in SCID mouse at 50 mg/kg, iv; format: organism-based; conditions: in vivo
[18] = biological target: Protein cereblon/Eukaryotic peptide chain release factor GTP-binding subunit ERF3A (Homo sapiens) (UniProt Q96SW2+P15170); assay: PROTAC activity at CRBN/GSPT1 in human RS4;11 cells assessed as induction of GSPT1 degradation at 10 to 1000 nM measured after 4 hrs by Western blot analysis; format: cell-based; conditions: dose 10-1000 nM
Protein cereblon/Eukaryotic peptide chain release factor GTP-binding subunit ERF3A (Homo sapiens), sequence (P15170 whole entry, looked up): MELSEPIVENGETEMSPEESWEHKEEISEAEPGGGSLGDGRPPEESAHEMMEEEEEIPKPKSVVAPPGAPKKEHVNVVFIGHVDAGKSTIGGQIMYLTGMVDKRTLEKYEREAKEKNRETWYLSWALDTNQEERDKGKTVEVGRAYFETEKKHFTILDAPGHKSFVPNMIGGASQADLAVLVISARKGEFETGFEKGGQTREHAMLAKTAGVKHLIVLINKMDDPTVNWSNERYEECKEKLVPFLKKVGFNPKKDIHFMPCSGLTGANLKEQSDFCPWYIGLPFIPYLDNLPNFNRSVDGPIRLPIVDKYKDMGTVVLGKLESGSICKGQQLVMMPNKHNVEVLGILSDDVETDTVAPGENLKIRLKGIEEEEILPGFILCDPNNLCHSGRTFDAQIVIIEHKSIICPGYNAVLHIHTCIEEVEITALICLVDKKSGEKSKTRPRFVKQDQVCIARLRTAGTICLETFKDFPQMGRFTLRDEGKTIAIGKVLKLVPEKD
Protein cereblon/Eukaryotic peptide chain release factor GTP-binding subunit ERF3A (Homo sapiens), sequence (Q96SW2 whole entry, looked up): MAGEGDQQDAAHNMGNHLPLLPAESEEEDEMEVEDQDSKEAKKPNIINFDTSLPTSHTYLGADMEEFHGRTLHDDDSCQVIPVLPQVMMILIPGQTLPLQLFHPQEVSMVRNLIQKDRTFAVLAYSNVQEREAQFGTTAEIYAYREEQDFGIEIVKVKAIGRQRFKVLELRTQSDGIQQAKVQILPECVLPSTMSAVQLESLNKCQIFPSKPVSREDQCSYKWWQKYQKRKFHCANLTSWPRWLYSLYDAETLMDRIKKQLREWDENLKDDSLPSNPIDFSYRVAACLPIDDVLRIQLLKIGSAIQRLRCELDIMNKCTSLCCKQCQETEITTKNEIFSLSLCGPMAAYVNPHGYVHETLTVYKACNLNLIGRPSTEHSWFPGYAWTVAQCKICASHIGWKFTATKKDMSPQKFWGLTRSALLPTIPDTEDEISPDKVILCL

Structure (SMILES)	IC50 [1]	IC50 [2]	other results
O=C1CCC(N2Cc3c(C#CCCCNC(=O)C45CCC(NC(=O)[C@@H]6NC7(CCCCC7)[C@@]7(C(=O)Nc8cc(Cl)ccc87)[C@H]6c6cccc(Cl)c6F)(CC4)C5)cccc3C2=O)C(=O)N1 (stereo partly specified)	2 nM	3 nM	
O=C1CCC(N2Cc3c(NCC4CCN(CCNC(=O)c5ccc(NC(=O)[C@@H]6NC7(CCCCC7)[C@@]7(C(=O)Nc8cc(Cl)ccc87)[C@H]6c6cccc(Cl)c6F)cc5)CC4)cccc3C2=O)C(=O)N1 (stereo partly specified)	9 nM	> 1000 nM	
O=C1CCC(N2Cc3c(C#CCCCNC(=O)[C@H]4C[C@H](NC(=O)[C@@H]5NC6(CCCCC6)[C@@]6(C(=O)Nc7cc(Cl)ccc76)[C@H]5c5cccc(Cl)c5F)C4)cccc3C2=O)C(=O)N1 (stereo partly specified)	3 nM	7 nM	
O=C1CCC(N2Cc3c(C#CCCCNC(=O)C45CCC(NC(=O)[C@@H]6NC7(CCCCC7)[C@@]7(C(=O)Nc8cc(Cl)ccc87)[C@H]6c6cccc(Cl)c6F)(CC4)CC5)cccc3C2=O)C(=O)N1 (stereo partly specified)	3 nM	> 1000 nM	
O=C1CCC(N2Cc3c(C#CCCCNC(=O)c4ccc(NC(=O)[C@@H]5NC6(CCCCC6)[C@@]6(C(=O)Nc7cc(Cl)ccc76)[C@H]5c5cccc(Cl)c5F)cn4)cccc3C2=O)C(=O)N1 (stereo partly specified)	7 nM	> 1000 nM	
O=C1CCC(N2Cc3c(CC[C@H]4CC[C@H](NC(=O)c5ccc(NC(=O)[C@@H]6NC7(CCCCC7)[C@@]7(C(=O)Nc8cc(Cl)ccc87)[C@H]6c6cccc(Cl)c6F)cc5)CC4)cccc3C2=O)C(=O)N1 (stereo partly specified)	34 nM	> 1000 nM	
O=C1CCC(N2Cc3c(NC4CCN(C(=O)c5ccc(NC(=O)[C@@H]6NC7(CCCCC7)[C@@]7(C(=O)Nc8cc(Cl)ccc87)[C@H]6c6cccc(Cl)c6F)cc5)CC4)cccc3C2=O)C(=O)N1 (stereo partly specified)	19 nM	33 nM	
COc1cc(NC(=O)[C@@H]2NC3(CCCCC3)[C@@]3(C(=O)Nc4cc(Cl)ccc43)[C@H]2c2cccc(Cl)c2F)ccc1C(=O)NCCCC#Cc1cccc2c1CN(C1CCC(=O)NC1=O)C2=O (stereo partly specified)	4 nM	> 1000 nM	
O=C1CCC(N2Cc3c(C#CCCCNC(=O)c4ccc(NC(=O)[C@@H]5NC6(CCCCC6)[C@@]6(C(=O)Nc7cc(Cl)ccc76)[C@H]5c5cccc(Cl)c5F)cc4F)cccc3C2=O)C(=O)N1 (stereo partly specified)	3 nM	> 1000 nM	
O=C(N[C@H]1CC[C@H](C(=O)O)CC1)[C@@H]1NC2(CCCCC2)[C@@]2(C(=O)Nc3cc(Cl)ccc32)[C@H]1c1cccc(Cl)c1F			IC50 [3]: 179 nM; IC50 [4]: 93 nM; Activity [5]: Active; Least Effect; Activity [6]: Active; Least Effect; Activity [7]: Active; Least Effect; Activity [8]: inactive; Activity [9]: Active; Less Effective Than Md-265; Activity [10]: Active; Less Effective Than Md-265; Activity [11]: Active; Less Effective Than Md-265; Activity [12]: Active; Compound Showed Modest Inhibition Of Cell Growth; Activity [13]: Active; Compound Showed Minimal Effect
O=C1CCC(N2Cc3c(NC4CN(CCNC(=O)c5ccc(NC(=O)[C@@H]6NC7(CCCCC7)[C@@]7(C(=O)Nc8cc(Cl)ccc87)[C@H]6c6cccc(Cl)c6F)cc5)C4)cccc3C2=O)C(=O)N1 (stereo partly specified)	50 nM	> 1000 nM	
CN1C(=O)CCC(N2Cc3c(C#CC4CCN(C(=O)[C@H]5CC[C@H](NC(=O)[C@@H]6NC7(CCCCC7)[C@@]7(C(=O)Nc8cc(Cl)ccc87)[C@H]6c6cccc(Cl)c6F)CC5)CC4)cccc3C2=O)C1=O (stereo partly specified)			Activity ([3]; time 4.0 day): Active; Compound Showed Weaker Cell Growth Inhibition
O=C1CCC(N2Cc3c(NCC4CN(C(=O)c5ccc(NC(=O)[C@@H]6NC7(CCCCC7)[C@@]7(C(=O)Nc8cc(Cl)ccc87)[C@H]6c6cccc(Cl)c6F)cc5)C4)cccc3C2=O)C(=O)N1 (stereo partly specified)	19 nM	> 1000 nM	
O=C1CCC(N2Cc3c(C#CCCCNC(=O)c4ccc(NC(=O)[C@@H]5NC6(CCCCC6)[C@@]6(C(=O)Nc7cc(Cl)ccc76)[C@H]5c5cccc(Cl)c5F)c(F)c4)cccc3C2=O)C(=O)N1 (stereo partly specified)	8 nM	> 1000 nM	
O=C1CCC(N2Cc3c(C#CCCCNC(=O)C4CCN(C(=O)[C@@H]5NC6(CCCCC6)[C@@]6(C(=O)Nc7cc(Cl)ccc76)C5c5cccc(Cl)c5F)CC4)cccc3C2=O)C(=O)N1 (single isomer, unassigned)	> 1000 nM	> 1000 nM	
O=C1CCC(N2Cc3c(NCC4CCN(C(=O)c5ccc(NC(=O)[C@@H]6NC7(CCCCC7)[C@@]7(C(=O)Nc8cc(Cl)ccc87)[C@H]6c6cccc(Cl)c6F)cc5)CC4)cccc3C2=O)C(=O)N1 (stereo partly specified)	19 nM	> 1000 nM	

Structure (SMILES)	IC50 [1]	IC50 [2]	other results
O=C1CCC(N2Cc3c(C#CCCCNC(=O)c4ccc(NC(=O)[C@@H]5NC6(CCCCC6)[C@@]6(C(=O)Nc7cc(Cl)ccc76)[C@H]5c5cccc(Cl)c5F)nc4)cccc3C2=O)C(=O)N1 (stereo partly specified)	2 nM	> 1000 nM	
O=C(O)c1ccc(NC(=O)[C@@H]2NC3(CCCCC3)[C@@]3(C(=O)Nc4cc(Cl)ccc43)[C@H]2c2cccc(Cl)c2F)cc1			Activity [14]: Active; Activity [15]: inactive
O=C1CCC(N2Cc3c(NCC4CN(CCNC(=O)c5ccc(NC(=O)[C@@H]6NC7(CCCCC7)[C@@]7(C(=O)Nc8cc(Cl)ccc87)[C@H]6c6cccc(Cl)c6F)cc5)C4)cccc3C2=O)C(=O)N1 (stereo partly specified)	8 nM	> 1000 nM	
O=C1CCC(N2Cc3c(C#CCCCNC(=O)[C@H]4CC[C@H](NC(=O)[C@@H]5NC6(CCCCC6)[C@@]6(C(=O)Nc7cc(Cl)ccc76)[C@H]5c5cccc(Cl)c5F)CC4)cccc3C2=O)C(=O)N1 (stereo partly specified)	0.9 nM	> 1000 nM	Activity [16]: Active; IC50 [3]: 1 nM
O=C1CCC(N2Cc3c(NCc4cn(CCCNC(=O)c5ccc(NC(=O)[C@@H]6NC7(CCCCC7)[C@@]7(C(=O)Nc8cc(Cl)ccc87)[C@H]6c6cccc(Cl)c6F)cc5)cn4)cccc3C2=O)C(=O)N1 (stereo partly specified)	6 nM	180 nM	Activity [17]: Toxic
O=C1CCC(N2Cc3c(NC4CN(C(=O)c5ccc(NC(=O)[C@@H]6NC7(CCCCC7)[C@@]7(C(=O)Nc8cc(Cl)ccc87)[C@H]6c6cccc(Cl)c6F)cc5)C4)cccc3C2=O)C(=O)N1 (stereo partly specified)	37 nM	> 1000 nM	
O=C1CCC(N2Cc3c(C#CCCCNC(=O)C45CC(NC(=O)[C@@H]6NC7(CCCCC7)[C@@]7(C(=O)Nc8cc(Cl)ccc87)[C@H]6c6cccc(Cl)c6F)(C4)C5)cccc3C2=O)C(=O)N1 (stereo partly specified)	3 nM	7 nM	
COc1cc(C(=O)NCCCC#Cc2cccc3c2CN(C2CCC(=O)NC2=O)C3=O)ccc1NC(=O)[C@@H]1NC2(CCCCC2)[C@@]2(C(=O)Nc3cc(Cl)ccc32)[C@H]1c1cccc(Cl)c1F (stereo partly specified)	8 nM	> 1000 nM	
O=C(CN1CCC(NC(=O)[C@@H]2NC3(CCCCC3)[C@@]3(C(=O)Nc4cc(Cl)ccc43)[C@H]2c2cccc(Cl)c2F)CC1)NCCCC#Cc1cccc2c1CN(C1CCC(=O)NC1=O)C2=O (stereo partly specified)	5 nM	> 1000 nM	Activity [16]: inactive
O=C1CCC(N2Cc3c(CCC4CCN(C(=O)c5ccc(NC(=O)[C@@H]6NC7(CCCCC7)[C@@]7(C(=O)Nc8cc(Cl)ccc87)[C@H]6c6cccc(Cl)c6F)cc5)CC4)cccc3C2=O)C(=O)N1 (stereo partly specified)	19 nM	> 1000 nM	
O=C1CCC(N2Cc3c(C#C[C@H]4CC[C@H](NC(=O)c5ccc(NC(=O)[C@@H]6NC7(CCCCC7)[C@@]7(C(=O)Nc8cc(Cl)ccc87)[C@H]6c6cccc(Cl)c6F)cc5)CC4)cccc3C2=O)C(=O)N1 (stereo partly specified)	200 nM	> 1000 nM	
O=C1CCC(N2Cc3c(CCc4cn(CCCNC(=O)c5ccc(NC(=O)[C@@H]6NC7(CCCCC7)[C@@]7(C(=O)Nc8cc(Cl)ccc87)[C@H]6c6cccc(Cl)c6F)cc5)cn4)cccc3C2=O)C(=O)N1 (stereo partly specified)	7 nM	> 1000 nM	Activity [16]: Active; Compound Showed Minimal Tumor Growth Inhibition
O=C1CCC(N2Cc3c(NC4CCN(CCNC(=O)c5ccc(NC(=O)[C@@H]6NC7(CCCCC7)[C@@]7(C(=O)Nc8cc(Cl)ccc87)[C@H]6c6cccc(Cl)c6F)cc5)CC4)cccc3C2=O)C(=O)N1 (stereo partly specified)	8 nM	> 1000 nM	
O=C1CCC(N2Cc3c(C#CCCCNC(=O)c4cccc(NC(=O)[C@@H]5NC6(CCCCC6)[C@@]6(C(=O)Nc7cc(Cl)ccc76)[C@H]5c5cccc(Cl)c5F)c4)cccc3C2=O)C(=O)N1 (stereo partly specified)	3 nM	3 nM	Activity [18]: Active
O=C1CCC(N2Cc3c(C#CCCCCN4CCC(NC(=O)C5CCC(NC(=O)[C@@H]6NC7(CCCCC7)[C@@]7(C(=O)Nc8cc(Cl)ccc87)[C@H]6c6cccc(Cl)c6F)CC5)CC4)cccc3C2=O)C(=O)N1 (stereo partly specified)	> 1000 nM	> 1000 nM	
